Data on 28 compounds can be found in ChEMBL document CHEMBL6153088, “Discovery of 1,4-Disubstituted Cyclohexene Analogues as Selective GPR119 Agonists for the Treatment of Type 2 Diabetes” (J Med Chem, 2025).

Test [1] addresses T1, Glucose-dependent insulinotropic receptor (Homo sapiens, UniProt Q8TDV5).
T1 sequence (Q8TDV5 whole entry): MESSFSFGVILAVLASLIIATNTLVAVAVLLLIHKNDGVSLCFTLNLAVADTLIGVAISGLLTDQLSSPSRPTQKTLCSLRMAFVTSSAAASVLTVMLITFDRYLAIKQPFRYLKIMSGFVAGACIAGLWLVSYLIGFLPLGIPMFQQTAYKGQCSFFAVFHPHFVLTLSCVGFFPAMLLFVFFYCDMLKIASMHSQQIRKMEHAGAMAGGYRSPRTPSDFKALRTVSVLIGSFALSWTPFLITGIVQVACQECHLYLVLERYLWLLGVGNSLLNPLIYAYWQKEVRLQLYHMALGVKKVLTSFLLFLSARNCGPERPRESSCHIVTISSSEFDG
Kind of test: Agonist activity at human GPR119 expressed in CHO cells assessed as cAMP level measured after 90 mins by HTRF based assay. It counts as functional, cell-based.

For test [2], the system named is Mus musculus. Kind of test: Anti-diabetic activity in overnight fasted male C57BL/6J mouse assessed as reduction in blood glucose level by measuring reduction in AUC […] at 20 mg/kg pre-administered with compound for 30 min followed by glucose bolus addition and measured upto 120 min by oral glucose tolerance test relative to control. The test is classed as functional. Further details: scale not given: the % may be the effect or the level left. Particulars: time <= 150 min, 2.5 h.

In test [3] the test system is Mus musculus. The test is described as follows: Anti-diabetic activity in overnight fasted male C57BL/6J mouse assessed as reduction in blood glucose level administered twice a day preincubated with compound for 30 min followed by glucose bolus addition and measured upto 120 min by oral glucose tolerance test. The test is classed as functional, organism-based. As to conditions: dose 3-30 mg/kg, time <= 150.0 min.

Test [4] relates to Mus musculus. Kind of test: Anti-diabetic activity in overnight fasted male C57BL/6J mouse assessed as reduction in blood glucose level by measuring reduction in AUC […] at 30 mg/kg pre-administered with compound for 30 min followed by glucose bolus addition and measured upto 120 min by oral glucose tolerance test relative to control. It counts as functional. Also noted: scale not given: the % may be the effect or the level left. As to conditions: time <= 150 min, 2.5 h.

Test [5] concerns the target T1, Glucose-dependent insulinotropic receptor. The test is described as follows: Agonist activity at human GPR119. The test is classed as functional.
Test [6] has as its system Mus musculus. The test is described as follows: Anti-diabetic activity in male FATZO mouse assessed as reduction in blood glucose level by measuring AUC […] at 300 mg/kg once a day pre-administered with compound for 30 min followed by glucose bolus addition and measured upto 120 min by oral glucose tolerance test relative to control. The test is classed as functional. As to conditions: time <= 150 min, 2.5 h. Also noted: scale not given: the % may be the effect or the level left.

In test [7] the target is T1, Glucose-dependent insulinotropic receptor. Kind of test: Agonist activity at human GPR119 expressed in CHO-K1 cells co-transfected with pcDNA3.1 assessed as increase in cAMP level. It counts as functional, cell-based.
Test [8] deals with Mus musculus. The test is described as follows: Anti-diabetic activity in male FATZO mouse assessed as reduction in blood glucose level by measuring reduction in AUC […] at 30 mg/kg pre-administered with compound for 30 min followed by glucose bolus addition and measured upto 120 min by oral glucose tolerance test relative to control. The test is classed as functional. Also noted: scale not given: the % may be the effect or the level left. As to conditions: time <= 150 min, 2.5 h.

The subject of test [9] is Mus musculus. Kind of test: Anti-diabetic activity in overnight fasted male C57BL/6J mouse assessed as reduction in blood glucose level by measuring reduction in AUC […] at 10 mg/kg once a day pre-administered with compound for 30 min followed by glucose bolus addition and measured upto 120 min by oral glucose tolerance test relative to control. It counts as functional. Also noted: scale not given: the % may be the effect or the level left. As to conditions: time <= 150 min, 2.5 h.

pEC50: −log10 of the molar value.

As to `CC(C)c1noc(N2CCC(COc3ccc(C4=CCC(C(=O)N5CCCC5)CC4)cc3)CC2)n1` (stereo unspecified), the pEC50 in test [1] is 7.26. Moreover, in test [2], the Activity amounted to 5.9%. `CCc1cnc(N2CCC(COc3ccc(C4=CCC(C(=O)N5CC[C@H](CO)C5)CC4)cc3)CC2)nc1` (stereo partly specified): the pEC50 in test [1] was 7.44. Besides, the Activity in [2] was determined as 13%. With `CCc1cnc(N2CCC(COc3ccc(C4=CCC(C(=O)N5CCC[C@@H]5CO)CC4)cc3)CC2)nc1` (stereo partly specified), the pEC50 in test [1] is 8.17. In addition, the Activity result in test [3] was “Dose-dependent-effect”; in [2], 16.6%; in test [4], 25.8%.

With `CN(CCO)C(=O)C1CC=C(c2ccc(OCC3CCN(C(=O)OC(C)(C)C)CC3)cc2)CC1` (stereo unspecified), the pEC50 in [1] is 7.85. For the same compound, the Activity in test [2] came out at 6.8%. With `CCc1cnc(N2CCC(COc3ccc(C4=CCC(C(=O)N5CCC(=O)C5)CC4)cc3)CC2)nc1` (stereo unspecified), the pEC50 in [1] was 7.92. The Activity in test [2] was found to be 12.7%. As for `CC(C)(C)OC(=O)N1CCC(COc2ccc(C3=CCC(C(=O)N4CCOCC4)CC3)cc2)CC1` (stereo unspecified), the pEC50 in test [1] was 7.89. Also, the Activity in [2] stood at 10.2%. The compound `CCc1cnc(N2CCC(CCCOc3cc(F)c(-c4noc(C(C)C)n4)c(F)c3)CC2)nc1` gave a negative logarithm of the EC50 (pEC50) in test [5] of 7.85. In the case of `CC(C)(C)OC(=O)N1CCC(COc2ccc(C3=CCC(C(=O)NCC(F)F)CC3)cc2)CC1` (stereo unspecified), in test [1], the negative logarithm of the EC50 (pEC50) is 7.47. Moreover, the Activity in [2] came to 10.6%. As for `CCOC(=O)C1CC=C(c2ccc(OCC3CCN(C(=O)OC(C)(C)C)CC3)cc2)CC1` (stereo unspecified), the pEC50 in [1] was 7.28. Turning to `CCc1cnc(N2CCC(COc3ccc(C4=CCC(C(=O)N5CCC(F)(F)C5)CC4)cc3)CC2)nc1` (stereo unspecified), in test [1], the pEC50 is 8.00. Moreover, in test [2], the Activity is 12.6%.

For `CCc1cnc(N2CCC(COc3ccc(C4=CCC(C(=O)N5CCC[C@H]5CO)CC4)cc3)CC2)nc1` (stereo partly specified), the pEC50 in [1] was 7.51. In addition, in [2], the Activity is 9.8%. In the case of `CC(C)c1noc(N2CCC(COc3ccc(C4=CCC(C(=O)N5CCC5)CC4)cc3)CC2)n1` (stereo unspecified), the pEC50 in test [1] was 7.39. The Activity in test [2] is listed as 4.2%.

`CCc1cnc(N2CCC(COc3ccc(C4=CCC(C(=O)N5CC[C@@H](CO)C5)CC4)cc3)CC2)nc1` (stereo partly specified): in test [1], the pEC50 was 7.37. The Activity in [2] came out at 7.6%. Regarding `CN(C)C(=N)NC(=N)N` [METFORMIN], the Activity in test [6] is listed as 25%. For `CCc1cnc(N2CCC(COc3ccc(C4=CCC(C(=O)N5CC[C@@H](O)C5)CC4)cc3)CC2)nc1` (stereo partly specified), the pEC50 in test [1] is 7.89. For the same compound, the Activity in test [2] amounted to 13.5%. For the compound `CCc1cnc(N2CCC(COc3ccc(C4=CCC(C(=O)N5CCCC5)CC4)cc3)CC2)nc1` (stereo unspecified), in test [1], the pEC50 was 7.57. Also, the Activity in test [2] is listed as 15.9%.

`CCc1cnc(N2CCC(COc3ccc(C4=CCC(C(=O)N5CC[C@H](O)C5)CC4)cc3)CC2)nc1` (stereo partly specified): in test [1], the pEC50 was 7.59. The Activity in test [2] is 7.2%. Take `CCOC(=O)c1ccc(-c2ccc(OCC3CCN(C(=O)OC(C)(C)C)CC3)cc2)cc1`: the negative-log EC50 (pEC50) in test [5] is 6.92. With `CCc1cnc(N2CCC(COc3ccc(C4=CCC(C(=O)N5CC(O)C5)CC4)cc3)CC2)nc1` (stereo unspecified), the pEC50 in test [1] is 7.15. In test [2], the Activity is on record as 12.3%. Turning to `CCc1cnc(N2CCC(COc3ccc(C4=CCC(C(=O)N5CCC5)CC4)cc3)CC2)nc1` (stereo unspecified), the pEC50 in test [1] was 7.42. In addition, the Activity in [2] came to 14.6%. Take `CCc1cnc(N2CCC(COc3ccc(C4=CC[C@@H](C(=O)N5CCC[C@@H]5CO)CC4)cc3)CC2)nc1`: in test [1], the pEC50 is 7.49. With `CC[C@@H](Oc1ccc(C(=O)C2CC2)cc1)c1nc(-c2ccc(C(=O)N[C@H](C)CO)c(F)c2)no1` [FIRUGLIPEL], the pEC50 in test [7] is 7.29. In the case of `N[C@@H](CC(=O)N1CCn2c(nnc2C(F)(F)F)C1)Cc1cc(F)c(F)cc1F` [SITAGLIPTIN], the Activity is listed as 17.5% in test [8], 20.5% in [9] and 22% in test [4]. Take `CC(C)(C)OC(=O)N1CCC(COc2ccc(C3=CCC(C(=O)NC4CC4)CC3)cc2)CC1` (stereo unspecified): the negative logarithm of the EC50 (pEC50) in test [1] is 7.40. As for `CCc1cnc(N2CCC(COc3ccc(C4=CCC(C(=O)N5CCOCC5)CC4)cc3)CC2)nc1` (stereo unspecified), the pEC50 in [1] is 7.89. Moreover, the Activity in [2] came out at 15.7%. In the same order, the values of `CC(C)c1noc(N2CCC(COc3ccc(C4=CCC(C(=O)N5CCOCC5)CC4)cc3)CC2)n1` (stereo unspecified) are 7.74 and 4.1%.

On to `CC(C)(C)OC(=O)N1CCC(COc2ccc(C3=CCC(C(=O)NCCO)CC3)cc2)CC1` (stereo unspecified), for which, in test [1], the pEC50 is 6.85. Moreover, the Activity in test [2] is given as 6.7%. With `CCOC(=O)C1CCC(c2ccc(OCC3CCN(C(=O)OC(C)(C)C)CC3)cc2)CC1` (stereo unspecified), the pEC50 in [5] is 6.43.

As a reminder, the pEC50 is the negative decadic logarithm of the EC50, by convention in mol/L.
